{"source": "patent US6909029B2", "about": "“Caenorhabditis elegans chemosensory bioassay for seven transmembrane receptor ligands” (SmithKline Beecham Corporation, priority 2000, dated 2005)", "test_system": "C. elegans", "assay": "Consumption of GFP-expressing bacteria by a culture of C. elegans (fluorescent plate reader)", "assay_type": "in vivo, Caenorhabditis elegans", "description": "Two cultures of C. elegans and GFP-expressing bacteria were placed in microtiter wells. In one well, a lethal concentration of 10 nanomolar ivermectin was placed. The GFP fluorescence in the wells was determined by a fluorescent plate reader instrument at the initial time, and after two days of culture.\nAs the C. elegans grow and reproduce, the E. coli lawn is diminished until no bacteria remain. Therefore, the reduction of the bacterial lawn is a measurement of an actively feeding population of C. elegans. The rate of decrease of the lawn is proportional to the number of feeding animals present. […] The consumption of bacteria can be used as an indirect indicator of the distribution of animals. Substances can be spotted onto a substrate in an array, and a uniform lawn of bacteria placed on the substrate, overlaying the array. A test population of C. elegans can be introduced and incubated for a suitable time period to allow consumption of the lawn. If the animals are attracted to a substance, then they will move to that region of the substrate and the bacterial lawn will be diminished at that spot in comparison to the surrounding lawn. Conversely, if a substance repels the animals, then the bacterial lawn at that spot will not be consumed. Thus, bacterial consumption can be used to assay the growth and location of a population of nematodes. If a GFP-expressing bacterial strain is used (Chalfie, et al., supra) as was done in the experiment of Example 3, the variations in bacterial density can be easily detected, for example, by photographing fluorescence intensity.\nIn this experiment, GFP-expressing bacteria are placed in two microtiter wells along with a population of C. elegans. Because the bacteria express GFP, the amount of bacteria can easily be assayed using a fluorescent plate reader (Cytoflour, Perspective Biosystems). […] Initially, both wells show equivalent levels of bacteria. […] FIG. 3 depicts this experiment. Thus, bacterial consumption can be used to assay the growth and feeding of a population of nematodes. If a GFP-expressing bacterial strain is used (Chalfie, et al., supra) as was done in the experiment shown in FIG. 3, the variations in bacterial density can be easily visualized by photographing fluorescence intensity.", "data": [{"substance": "ivermectin", "values": [{"measurement": "GFP fluorescence of bacteria in the well (Relative Intensity)", "setting": "10 nanomolar ivermectin, after two days of culture", "value": "GFP fluorescence increases"}, {"measurement": "Effect on C. elegans", "setting": "in vivo", "value": "kills C. elegans"}, {"measurement": "Amount of GFP-expressing bacteria in the well", "setting": "ivermectin-containing well, after 4 days of culture", "value": "shows bacterial growth"}, {"measurement": "Lethal concentration for C. elegans", "setting": "microtiter well culture with GFP-expressing bacteria", "value": 10, "unit": "nM"}]}]}
